This is an account of results in article PMC6943623, “Antileishmanial Compounds Isolated from Psidium Guajava L. Using a Metabolomic Approach” (Molecules, 2019).

Values after ≈ are worked out from the molar mass of the structure shown. Where two headings read alike, the source gives them in different places.

The test system of data set [1] is Leishmania. On the set-up: method as in PMID 15070160. Conditions: cited from earlier work.
For the next data set, the system named is L. infantum amastigote. On the set-up: method as in PMID 29201107. The note with it: cited from earlier work.
A short description of data set [2]: Cytotoxicity evaluation, MTT assay. Type of data set: cell-based. The note with it: mouse, J774A.1 macrophage cells, mean of three independent experiments, read-out: J774A1 CC50. The method, then:
After incubation for 24 h, 100 µL of medium with various concentrations of jacoumaric acid, carasolic acid, and appropriate controls (doxorubicin and amphotericin B, purchased from Sigma-Aldrich) were added and the plates were incubated for 72 h at 37 °C and 5% CO2. Each 96-well plate was then examined under a microscope to detect possible precipitate formation before the medium was aspirated from the well. 100 µL of MTT solution (0.5mg/mL in DMEM) was then added to each well. Cells were incubated for 2 h at 37 °C and 5% CO2. Then, the MTT solution was removed and DMSO (100 µL/well) was added to dissolve the resulting formazan crystals. Plates were shaken vigorously (300 rpm) for 5 min. The absorbance was measured at 570 nm with a microplate spectrophotometer (Eon Bio Tek, Winooski, VT, USA). DMSO was used as blank. […] (San Diego, CA, USA). CC50 values represent the mean value calculated from three independent experiments.

The subject of another data set is Pyricularia pryzae. The note with it: cited from earlier work.
Data set [3] has as its system L. infantum axenic amastigotes. Briefly: Antileishmanial activity on axenic amastigotes (luciferase assay). Type of data set: cell-based, L. infantum strain MHOM/MA/67/ITMAP-263. The note with it: for IC50 / IC90: Leishmania infantum; for IC50 / Axenic Amastigotes IC50: 48 h, L. infantum axenic amastigotes, 37 °C; for IC90: L. infantum amastigotes, concentration used in the ROS assay; for IC50 when associated with mannitol, compared with IC50 alone: mannitol 50 µM, axenic amastigotes.

Data set [4] has as its system L. infantum promastigotes. The experiment in a line: Antileishmanial activity on promastigotes (luciferase assay). The format is cell-based, L. infantum strain MHOM/MA/67/ITMAP-263. Conditions: Leishmania infantum, 72 h, 24 °C, mean of three independent experiments.
Another data set has as its system L. infantum amastigotes. The experiment in a line: Intracellular ROS generation, H2DCFDA assay. The format is cell-based. The note with it: axenic amastigotes treated 24 h at IC50 and IC90 concentrations. The method, then: The cells were then centrifuged, washed with PBS, resuspended in PBS, and incubated for 30 min in the dark with 10 µM H2DCFDA at 37 °C. ROS were measured as an increase in fluorescence caused by the conversion of non-fluorescent dye to highly fluorescence […] (excitation wavelength 490 nm, emission wavelength 525 nm) in a fluorescence microplate reader (SAFAS Xenius XM, Monaco, France).

The subject of data set [5] is five human cancer cell lines (HCT116, CCRFCEM, DU145, Huh7, and A549). Also on record: method as in PMID 28578580. The note with it: read-out: IC50, antitumor activity; cited from earlier work.
The next data set relates to Leishmania amazonensis. On the set-up: method as in PMID 31269109. Conditions: cited from earlier work.
Data set [6] deals with Leishmania. On the set-up: method as in PMID 31571946. Conditions: cited from earlier work.

Turning to `C[C@H]1[C@H](C)CC[C@]2(C(=O)O)CC[C@]3(C)C(=CC[C@@H]4[C@@]5(C)CC[C@H](O)C(C)(C)[C@@H]5CC[C@]43C)[C@H]12` [ursolic acid], the “IC50, antileishmanial” value in the data set with Leishmania [1] is 27 µg/mL (≈ 59.1 µM).
For the molecule `CC1(C)CC[C@]2(C(=O)O)CC[C@]3(C)C(=CC[C@@H]4[C@@]5(C)CC[C@H](O)C(C)(C)[C@@H]5CC[C@]43C)[C@@H]2C1` [oleanoic acid], in the data set on L. infantum amastigote, the “IC50 on L. infantum amastigote” value is reported as 2.91 ± 0.066 µg/mL (≈ 6.37 µM).
As for `COc1cccc2c1C(=O)c1c(O)c3c(c(O)c1C2=O)C[C@@](O)(C(=O)CO)C[C@@H]3O[C@H]1C[C@H](N)[C@H](O)[C@H](C)O1` [Doxorubicin, reference compound], the CC50 at 72 h in data set [2] was 0.04 ± 0.004 µg/mL (≈ 0.0736 µM).
Turning to `CC1(C)CCC2(C(=O)O)CCC3(C)C(=CCC4C5(C)CC(O)C(O)C(C)(C(=O)O)C5CCC43C)C2C1` (stereo not drawn) [Medicagenic acid (6), Medicagenic acid], in the data set with Pyricularia pryzae, the “minimum fungicidal concentration (MFC)” value was 30 µg/mL (≈ 59.7 µM) and the “minimum inhibitory concentration (MIC)” value was 10 µg/mL (≈ 19.9 µM). For the same molecule, in [3], the IC50 is greater than 50 µg/mL. The IC50 in [4] is greater than 50 µg/mL.
For `CC1CCC2(C(=O)O)CCC3(C)C(=CCC4C5(C)CC(O)C(OC(=O)/C=C/c6ccc(O)cc6)C(C)(C)C5CCC43C)C2C1C` (stereo not drawn) [Jacoumaric acid (2), Jacoumaric acid], the half-maximal cytotoxic concentration (CC50) at 72 h in [2] turned out to be 12.9 ± 2.5 µg/mL (≈ 20.8 µM). Moreover, in data set [3], the “Axenic Amastigotes IC50” value is on record as 1.32 ± 0.59 µg/mL; inhibition was half-maximal at 1.32 ± 0.59 µg/mL (≈ 2.13 µM) (IC50); the IC90 stood at 1.9 µg/mL (≈ 3.07 µM); the “IC50 when associated with mannitol, compared with IC50 alone” value is “no significant differences”. Besides, the “Production of ROS (H2DCFDA fluorescence) compared to the control” value with L. infantum amastigotes is recorded as “significantly decreased”. Also, the half-inhibitory concentration (IC50) in [4] is greater than 50 µg/mL.
`C[C@H]1[C@H](C)CC[C@]2(C(=O)O)CC[C@]3(C)C(=CC[C@@H]4[C@@]5(C)C[C@@H](O)[C@H](O)C(C)(C)[C@@H]5CC[C@]43C)[C@H]12` [Corosolic acid (1), Corosolic acid (2α-hydroxyursolic acid)]: in [2], the CC50 at 72 h worked out at 5.77 ± 0.5 µg/mL (≈ 12.2 µM). In addition, in data set [3], the “Axenic Amastigotes IC50” value was determined as 1.01 ± 0.06 µg/mL; the 50% inhibitory concentration (IC50) was determined as 1.06 µg/mL (≈ 2.24 µM); the IC90 was determined as 1.43 µg/mL (≈ 3.03 µM); the “IC50 when associated with mannitol, compared with IC50 alone” value is on record as “no significant differences”. The “Production of ROS (H2DCFDA fluorescence) compared to the control” value with L. infantum amastigotes is listed as “significantly decreased”. In [4], this molecule showed an IC50 of 18.4 ± 1.2 µg/mL (≈ 39 µM).
With `C/C1=C\CC(C)(C)/C=C/CC2(C)Oc3c(C=O)c(O)c(C=O)c(O)c3C(c3ccccc3)C2CC1` (stereo not drawn) [Guajadial B (5), Guajadial B], the concentration for half-maximal inhibition (IC50) in [5] is 150 nM; in [3], greater than 50 µg/mL; in data set [4] it was greater than 50 µg/mL.
Consider `C=C1CC/C=C(\C)CC[C@@H]2[C@@H]1CC2(C)C` [E-caryophyllene], for which, in the data set on Leishmania amazonensis, the “IC50, antileishmanial” value is given as 10.7 ± 0.6 µg/mL (≈ 52.4 µM).
Consider `CC1(C)CC[C@]2(C(=O)O)CC[C@]3(C)C(=CC[C@@H]4[C@@]5(C)C[C@@H](O)[C@H](O)C(C)(C)[C@@H]5CC[C@]43C)[C@@H]2C1` [maslinic, maslinic acid], for which the “IC50 on L. infantum amastigote” value in the data set with L. infantum amastigote was 0.99 ± 0.09 µg/mL (≈ 2.09 µM).
On to spergulin-A, for which the “IC50, antileishmanial” value with Leishmania [6] is reported as 6.22 µg/mL.
With `C[C@@H]1[C@H](O)[C@@H](C)/C=C/C=C/C=C/C=C/C=C/C=C/C=C/[C@H](O[C@@H]2O[C@H](C)[C@@H](O)[C@H](N)[C@@H]2O)C[C@@H]2O[C@](O)(C[C@@H](O)C[C@@H](O)[C@H](O)CC[C@@H](O)C[C@@H](O)CC(=O)O[C@H]1C)C[C@H](O)[C@H]2C(=O)O` [Amphotericin B, reference compound], in data set [2], the half-maximal cytotoxic concentration (CC50) at 72 h was 5.79 ± 0.65 µg/mL (≈ 6.27 µM). The 50% inhibitory concentration (IC50) in [3] was determined as 0.09 ± 0.04 µg/mL (≈ 0.0974 µM); in [4], 0.09 ± 0.01 µg/mL (≈ 0.0974 µM).
